{"source": "patent US8192962B2", "about": "“Processes for detecting toxic substances” (Daikin Industries, Ltd., priority 2001, dated 2012)", "test_system": "Transport facilitation protein genes", "assay": "DNA chip mRNA expression in yeast, transport facilitation protein genes (Table 5)", "type": "cell-based, Saccharomyces cerevisiae S288C", "procedure,_shortened": "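Untreated cultures served as reference for log-phase S288C yeast given a growth-inhibiting, non-lethal toxicant dose for 2 h at 25° C. in YPD. Gene expression was measured on a whole-genome DNA chip from Cy3/Cy5-labeled cDNA.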"}
{"smiles": "O=[N+]([O-])c1cc[n+]([O-])c2ccccc12", "note": "[(5), 4-nitroquinolin-N-oxide]", "values": [{"measurement": "The level of expressed mRNA in the presence of chemical substance/The level of expressed mRNA in the absence of chemical substance", "setting": "yeast gene YGR281W", "value": 0.6}, {"measurement": "The level of expressed mRNA in the presence of chemical substance/The level of expressed mRNA in the absence of chemical substance", "setting": "yeast gene YHL035C", "value": 0.9}, {"measurement": "The level of expressed mRNA in the presence of chemical substance/The level of expressed mRNA in the absence of chemical substance", "setting": "yeast gene YHL040C", "value": 1.1}, {"measurement": "The level of expressed mRNA in the presence of chemical substance/The level of expressed mRNA in the absence of chemical substance", "setting": "yeast gene YHL047C", "value": 1.2}, {"measurement": "The level of expressed mRNA in the presence of chemical substance/The level of expressed mRNA in the absence of chemical substance", "setting": "yeast gene YHR026W", "value": 1.1}, {"measurement": "The level of expressed mRNA in the presence of chemical substance/The level of expressed mRNA in the absence of chemical substance", "setting": "yeast gene YHR092C", "value": 1.4}, {"measurement": "The level of expressed mRNA in the presence of chemical substance/The level of expressed mRNA in the absence of chemical substance", "setting": "yeast gene YHR094C", "value": 1.1}, {"measurement": "The level of expressed mRNA in the presence of chemical substance/The level of expressed mRNA in the absence of chemical substance", "setting": "yeast gene YHR175W", "value": 0.9}, {"measurement": "The level of expressed mRNA in the presence of chemical substance/The level of expressed mRNA in the absence of chemical substance", "setting": "yeast gene YIL006W", "value": 0.8}, {"measurement": "The level of expressed mRNA in the presence of chemical substance/The level of expressed mRNA in the absence of chemical substance", "setting": "yeast gene YIL022W", "value": 0.8}, {"measurement": "The level of expressed mRNA in the presence of chemical substance/The level of expressed mRNA in the absence of chemical substance", "setting": "yeast gene YIL056W", "value": 1.2}, {"measurement": "The level of expressed mRNA in the presence of chemical substance/The level of expressed mRNA in the absence of chemical substance", "setting": "yeast gene YIL088C", "value": 1.6}, {"measurement": "The level of expressed mRNA in the presence of chemical substance/The level of expressed mRNA in the absence of chemical substance", "setting": "yeast gene YJL034W", "value": 1.2}, {"measurement": "The level of expressed mRNA in the presence of chemical substance/The level of expressed mRNA in the absence of chemical substance", "setting": "yeast gene YJL212C", "value": 1.2}, {"measurement": "The level of expressed mRNA in the presence of chemical substance/The level of expressed mRNA in the absence of chemical substance", "setting": "yeast gene YJL219W", "value": 1.2}, {"measurement": "The level of expressed mRNA in the presence of chemical substance/The level of expressed mRNA in the absence of chemical substance", "setting": "yeast gene YJR077C", "value": 0.9}, {"measurement": "The level of expressed mRNA in the presence of chemical substance/The level of expressed mRNA in the absence of chemical substance", "setting": "yeast gene YJR106W", "value": 0.9}, {"measurement": "The level of expressed mRNA in the presence of chemical substance/The level of expressed mRNA in the absence of chemical substance", "setting": "yeast gene YJR121W", "value": 0.8}, {"measurement": "The level of expressed mRNA in the presence of chemical substance/The level of expressed mRNA in the absence of chemical substance", "setting": "yeast gene YKL016C", "value": 1.5}, {"measurement": "The level of expressed mRNA in the presence of chemical substance/The level of expressed mRNA in the absence of chemical substance", "setting": "yeast gene YKL146W", "value": 1.0}, {"measurement": "The level of expressed mRNA in the presence of chemical substance/The level of expressed mRNA in the absence of chemical substance", "setting": "yeast gene YKR039W", "value": 1.0}, {"measurement": "The level of expressed mRNA in the presence of chemical substance/The level of expressed mRNA in the absence of chemical substance", "setting": "yeast gene YKR067W", "value": 1.3}, {"measurement": "The level of expressed mRNA in the presence of chemical substance/The level of expressed mRNA in the absence of chemical substance", "setting": "yeast gene YLL028W", "value": 0.9}, {"measurement": "The level of expressed mRNA in the presence of chemical substance/The level of expressed mRNA in the absence of chemical substance", "setting": "yeast gene YLR081W", "value": 1.0}, {"measurement": "The level of expressed mRNA in the presence of chemical substance/The level of expressed mRNA in the absence of chemical substance", "setting": "yeast gene YLR295C", "value": 2.2}, {"measurement": "The level of expressed mRNA in the presence of chemical substance/The level of expressed mRNA in the absence of chemical substance", "setting": "yeast gene YLR348C", "value": 0.9}, {"measurement": "The level of expressed mRNA in the presence of chemical substance/The level of expressed mRNA in the absence of chemical substance", "setting": "yeast gene YLR378C", "value": 1.0}, {"measurement": "The level of expressed mRNA in the presence of chemical substance/The level of expressed mRNA in the absence of chemical substance", "setting": "yeast gene YMR011W", "value": 0.9}, {"measurement": "The level of expressed mRNA in the presence of chemical substance/The level of expressed mRNA in the absence of chemical substance", "setting": "yeast gene YMR162C", "value": 0.9}, {"measurement": "The level of expressed mRNA in the presence of chemical substance/The level of expressed mRNA in the absence of chemical substance", "setting": "yeast gene YMR203W", "value": 0.6}, {"measurement": "The level of expressed mRNA in the presence of chemical substance/The level of expressed mRNA in the absence of chemical substance", "setting": "yeast gene YNL055C", "value": 0.9}, {"measurement": "The level of expressed mRNA in the presence of chemical substance/The level of expressed mRNA in the absence of chemical substance", "setting": "yeast gene YNL259C", "value": 1.1}, {"measurement": "The level of expressed mRNA in the presence of chemical substance/The level of expressed mRNA in the absence of chemical substance", "setting": "yeast gene YNR072W", "value": 1.0}, {"measurement": "The level of expressed mRNA in the presence of chemical substance/The level of expressed mRNA in the absence of chemical substance", "setting": "yeast gene YOL119C", "value": 1.5}, {"measurement": "The level of expressed mRNA in the presence of chemical substance/The level of expressed mRNA in the absence of chemical substance", "setting": "yeast gene YOL156W", "value": 1.2}, {"measurement": "The level of expressed mRNA in the presence of chemical substance/The level of expressed mRNA in the absence of chemical substance", "setting": "yeast gene YOL163W", "value": 0.9}, {"measurement": "The level of expressed mRNA in the presence of chemical substance/The level of expressed mRNA in the absence of chemical substance", "setting": "yeast gene YOR035C", "value": 1.0}, {"measurement": "The level of expressed mRNA in the presence of chemical substance/The level of expressed mRNA in the absence of chemical substance", "setting": "yeast gene YOR130C", "value": 1.8}, {"measurement": "The level of expressed mRNA in the presence of chemical substance/The level of expressed mRNA in the absence of chemical substance", "setting": "yeast gene YOR153W", "value": 1.0}, {"measurement": "The level of expressed mRNA in the presence of chemical substance/The level of expressed mRNA in the absence of chemical substance", "setting": "yeast gene YOR270C", "value": 0.8}, {"measurement": "The level of expressed mRNA in the presence of chemical substance/The level of expressed mRNA in the absence of chemical substance", "setting": "yeast gene YOR273C", "value": 1.1}, {"measurement": "The level of expressed mRNA in the presence of chemical substance/The level of expressed mRNA in the absence of chemical substance", "setting": "yeast gene YOR316C", "value": 1.0}, {"measurement": "The level of expressed mRNA in the presence of chemical substance/The level of expressed mRNA in the absence of chemical substance", "setting": "yeast gene YOR328W", "value": 1.0}, {"measurement": "The level of expressed mRNA in the presence of chemical substance/The level of expressed mRNA in the absence of chemical substance", "setting": "yeast gene YOR332W", "value": 0.9}, {"measurement": "The level of expressed mRNA in the presence of chemical substance/The level of expressed mRNA in the absence of chemical substance", "setting": "yeast gene YOR348C", "value": 0.9}, {"measurement": "The level of expressed mRNA in the presence of chemical substance/The level of expressed mRNA in the absence of chemical substance", "setting": "yeast gene YPL036W", "value": 1.3}, {"measurement": "The level of expressed mRNA in the presence of chemical substance/The level of expressed mRNA in the absence of chemical substance", "setting": "yeast gene YPL134C", "value": 1.4}, {"measurement": "The level of expressed mRNA in the presence of chemical substance/The level of expressed mRNA in the absence of chemical substance", "setting": "yeast gene YPL265W", "value": 1.0}, {"measurement": "The level of expressed mRNA in the presence of chemical substance/The level of expressed mRNA in the absence of chemical substance", "setting": "yeast gene YPL271W", "value": 1.4}, {"measurement": "The level of expressed mRNA in the presence of chemical substance/The level of expressed mRNA in the absence of chemical substance", "setting": "yeast gene YPR124W", "value": 2.0}, {"measurement": "The level of expressed mRNA in the presence of chemical substance/The level of expressed mRNA in the absence of chemical substance", "setting": "yeast gene YPR192W", "value": 1.2}, {"measurement": "The level of expressed mRNA in the presence of chemical substance/The level of expressed mRNA in the absence of chemical substance", "setting": "yeast gene YPR194C", "value": 1.3}]}
